Format in all cases: in vivo
Conditions in all cases: 12 days after treatment

Assay [1] deals with Alopecurus myosuroides (ALOMY). The assay can be described thus: Example 3 glasshouse trial post-emergence in wheat, (I) and isoproturon. The protocol: (§1) A glasshouse trial was carried out post-emergence in wheat using a tank mixture comprising a phenoxypicolinamide derivative of formula I (at 1, 4 and 16 g/ha) and isoproturon (at 125, 250 and 500 g/ha) which was sprayed on the following weed species:
(§2) Alopecurus myosuroides (ALOMY), Setaria viridis (SETVI), Avena fatua (AVEFA), Echinochloa crus-galli (ECHCG) and Galium aparine (GALAP).

For assay [2], the system named is Avena fatua (AVEFA). The assay is described as above. How it is done: as §1, §2
The test system of assay [3] is Echinochloa crus-galli (ECHCG). Described as above. How it is done:
as §1, §2

The test system of assay [4] is Galium aparine (GALAP). The assay is described as above. The protocol:
as §1, §2

Assay [5] relates to Setaria viridis (SETVI). The assay is described as above. How it is done: as §1, §2
In assay [6] the test system is Avena fatua (AVEFA). The assay can be described thus: Example 4 glasshouse trial post-emergence in wheat, (I) and bromoxynil. The protocol:
(§3) A glasshouse trial was carried out post-emergence in wheat using a tank mixture comprising a phenoxypicolinamide derivative of formula I (at 1, 4 and 16 g/ha) and bromoxynil (at 12.5, 50 and 200 g/ha) which was sprayed on the following weed species:
(§4) Setaria viridis (SETVI), Avena fatua (AVEFA), Echinochloa crus-galli (ECHCG) and Galium aparine (GALAP).

Assay [7] relates to Echinochloa crus-galli (ECHCG). The description is as above. The protocol:
as §3, §4

Assay [8] relates to Galium aparine (GALAP). Described as above. How it is done: as §3, §4
The test system of assay [9] is Setaria viridis (SETVI). The assay is described as above. How it is done: as §3, §4
In assay [10] the test system is Alopecurus myosuroides (ALOMY). The assay can be described thus: Example 5 glasshouse trial post-emergence in wheat, (I) and isoxaflutole. How it is done: (§5) A glasshouse trial was carried out post-emergence in wheat using a tank mixture comprising a phenoxypicolinamide derivative of formula I (at 1, 4 and 16 g/ha) and isoxaflutole (at 8, 16 and 32 g/ha) which was sprayed on the following weed species:
(§6) Alopecurus myosuroides (ALOMY) and Galium aparine (GALAP).

Assay [11] concerns Galium aparine (GALAP). Described as above. The protocol:
as §5, §6

The text below walks through data of patent US6660692B1, “Herbicidal compositions comprising picolinafen” (Aventis CropScience S.A., priority 1999, dated 2003).

The structures appear in SMILES notation.

As for `O=C(Nc1ccc(F)cc1)c1cccc(Oc2cccc(C(F)(F)F)c2)n1` [(I), picolinafen], the “% Weed Control ALOMY” value in assay [1] (1 g ai/ha) stood at 10%; in [1] (4 g ai/ha) it was 10%; in assay [1] (16 g ai/ha), 30%; in assay [10] (1 g ai/ha), 10%; in assay [10] (4 g ai/ha), 10%; in assay [10] (16 g ai/ha), 30%. For the same molecule, the “% Weed Control AVEFA” value worked out at 10% in the assay with Avena fatua (AVEFA) [2] (1 g ai/ha); 20% with Avena fatua (AVEFA) [2] (4 g ai/ha); 40% with Avena fatua (AVEFA) [2] (16 g ai/ha); 10% with Avena fatua (AVEFA) [6] (1 g ai/ha); 20% in the assay with Avena fatua (AVEFA) [6] (4 g ai/ha); 40% in the assay with Avena fatua (AVEFA) [6] (16 g ai/ha). Moreover, the “% Weed Control ECHCG” value amounted to 10% in assay [3] (1 g ai/ha); 10% in assay [3] (4 g ai/ha); 40% in [3] (16 g ai/ha); 10% in assay [7] (1 g ai/ha); 10% in assay [7] (4 g ai/ha); 40% in [7] (16 g ai/ha). Also, the “% Weed Control GALAP” value stood at 10% in the assay on Galium aparine (GALAP) [4] (1 g ai/ha); 40% in the assay with Galium aparine (GALAP) [4] (4 g ai/ha); 90% in the assay with Galium aparine (GALAP) [4] (16 g ai/ha); 10% in the assay on Galium aparine (GALAP) [8] (1 g ai/ha); 40% in the assay on Galium aparine (GALAP) [8] (4 g ai/ha); 90% in the assay with Galium aparine (GALAP) [8] (16 g ai/ha). In addition, the “% Weed Control GALAP” value in the assay with Galium aparine (GALAP) [11] (1 g ai/ha) came out at 10%; in the assay on Galium aparine (GALAP) [11] (4 g ai/ha), 40%; with Galium aparine (GALAP) [11] (16 g ai/ha), 90%. Moreover, the “% Weed Control SETVI” value in the assay on Setaria viridis (SETVI) [5] (1 g ai/ha) is on record as 10%; in the assay with Setaria viridis (SETVI) [5] (4 g ai/ha), 30%; in the assay on Setaria viridis (SETVI) [5] (16 g ai/ha) it was 70%; with Setaria viridis (SETVI) [9] (1 g ai/ha), 10%; in the assay on Setaria viridis (SETVI) [9] (4 g ai/ha) it was 30%; in the assay with Setaria viridis (SETVI) [9] (16 g ai/ha), 70%.

Regarding `CC(C)c1ccc(NC(=O)N(C)C)cc1` [Compound (II), 3-(4-isopropylphenyl)-1,1-dimethylurea], the “% Weed Control ALOMY” value in [1] (125 g ai/ha) stood at 0%; in [1] (250 g ai/ha), 0%; in assay [1] (500 g ai/ha), 20%. Besides, the “% Weed Control AVEFA” value in the assay with Avena fatua (AVEFA) [2] (125 g ai/ha) was 0%; with Avena fatua (AVEFA) [2] (250 g ai/ha) it was 30%; in the assay on Avena fatua (AVEFA) [2] (500 g ai/ha) it was 30%. Besides, the “% Weed Control ECHCG” value in [3] (125 g ai/ha) is recorded as 10%; in [3] (250 g ai/ha), 70%; in assay [3] (500 g ai/ha) it was 70%. Moreover, the “% Weed Control GALAP” value in the assay with Galium aparine (GALAP) [4] (125 g ai/ha), in the assay with Galium aparine (GALAP) [4] (250 g ai/ha) and in the assay with Galium aparine (GALAP) [4] (500 g ai/ha) was 0% each time. Further, the “% Weed Control SETVI” value was determined as 50% in the assay on Setaria viridis (SETVI) [5] (125 g ai/ha), 70% in the assay on Setaria viridis (SETVI) [5] (250 g ai/ha) and 100% in the assay with Setaria viridis (SETVI) [5] (500 g ai/ha).

On to `N#Cc1cc(Br)c(O)c(Br)c1` [Compound (III), 3,5-dibromo-4-hydroxybenzonitrile], for which the “% Weed Control AVEFA” value in the assay with Avena fatua (AVEFA) [6] (12.5 g ai/ha) was 0%; with Avena fatua (AVEFA) [6] (50 g ai/ha) it was 0%; with Avena fatua (AVEFA) [6] (200 g ai/ha), 10%. Also, the “% Weed Control ECHCG” value in [7] (12.5 g ai/ha) was found to be 0%; in assay [7] (50 g ai/ha) it was 0%; in assay [7] (200 g ai/ha) it was 20%. Besides, the “% Weed Control GALAP” value came out at 0% with Galium aparine (GALAP) [8] (12.5 g ai/ha), 80% with Galium aparine (GALAP) [8] (50 g ai/ha) and 100% in the assay with Galium aparine (GALAP) [8] (200 g ai/ha). In addition, the “% Weed Control SETVI” value with Setaria viridis (SETVI) [9] (12.5 g ai/ha) is on record as 0%; in the assay on Setaria viridis (SETVI) [9] (50 g ai/ha) it was 20%; in the assay with Setaria viridis (SETVI) [9] (200 g ai/ha), 20%.

Consider `CS(=O)(=O)c1cc(C(F)(F)F)ccc1C(=O)c1cnoc1C1CC1` [Compound (IV), 5-cyclopropyl-4-(2-methylsulphonyl-4-trifluoromethyl)-benzoylisoxazole], for which the figures for the “% Weed Control ALOMY” value in assay [10] (8 g ai/ha), in assay [10] (16 g ai/ha) and in assay [10] (32 g ai/ha) were 10%, 20% and 40%, respectively. Moreover, the figures for the “% Weed Control GALAP” value with Galium aparine (GALAP) [11] (8 g ai/ha), in the assay on Galium aparine (GALAP) [11] (16 g ai/ha) and in the assay on Galium aparine (GALAP) [11] (32 g ai/ha) were 60%, 60% and 80%, respectively.
